In patent US8685394B2, “Combination of anti-CTLA4 antibody with diverse therapeutic regimens for the synergistic treatment of proliferative diseases” (Bristol-Myers Squibb Company, priority 2008, dated 2014):
Entries after “also recorded” stand apart in the source; their conditions may differ. Like-named read-outs stand apart in the source and are kept apart here.

Key:
[1] = tested on: CT26 colon carcinoma; assay: CT26 colon carcinoma subcutaneous tumor model; format: in vivo, murine; conditions: for % TGI (Average) / CR / PR / T-C (1000 mm^3): CT26 s.c.; for % TGI (Average): doses and schedules of Table 4; for CR: mice with complete regression / mice in group; for PR: mice with partial regression / mice in group; for T-C (1000 mm^3): number of days to reach target tumor size 1000 mm^3
Experimental: (§1) All compounds were tested at their optimal dose and schedule. When used in combination, CTLA-4 mAb was initiated one day after the first dose of chemotherapy. Percent tumor growth inhibition and number of days to reach target tumor size were used to evaluate efficacy. Antitumor activity was scored as: complete regression (CR; non-palpable tumor for ≧2 assessments) or partial regression (PR; 50% reduction in tumor volume for ≧2 assessments).

[2] = tested on: SA1N fibrosarcoma; assay: SA1N fibrosarcoma subcutaneous tumor model; format: in vivo, murine; conditions: SA1N s.c.; for % TGI (Average D 20-48): average of days 20-48, doses and schedules of Table 3; for CR: mice with complete regression / mice in group; for PR: mice with partial regression / mice in group; for T-C (1000 mm^3): number of days to reach target tumor size 1000 mm^3
Experimental: as §1

[3] = tested on: tumor models; assay: Antitumor activity in murine tumor models, model not stated (FIG. 6, 8, 9, 10; summary); format: in vivo; conditions: concurrent treatment
[4] = tested on: M109 lung metastasis; assay: M109 lung carcinoma model of experimental pulmonary metastasis; format: in vivo, murine; conditions: doses and schedules of Table 2, control vehicle 32
[5] = tested on: M109 lung carcinoma; assay: M109 lung carcinoma subcutaneous tumor model; format: in vivo, murine; conditions: for CR / T-C (1000 mm^3) / PR / % TGI (Average): M109 s.c.; for CR: complete regression = non-palpable tumor for ≧2 assessments; for T-C (1000 mm^3): number of days to reach target tumor size 1000 mm^3, doses and schedules of Table 1; for PR: partial regression = 50% reduction in tumor volume for ≧2 assessments; for % TGI (Average): percent tumor growth inhibition, each treatment at dose (mg/kg) and schedule (study days) of Table 1
Experimental: as §1

[6] = tested on: in vivo cytotoxicity; conditions: FIG. 12
[7] = tested on: immune cells in tumor-draining lymph nodes; assay: Composition of immune cells in tumor-draining lymph nodes (FIG. 13); format: in vivo
[8] = tested on: T-cell activation; conditions: Schade et al., 2007; cited from earlier work
[9] = tested on: T-cell function; conditions: in vitro; concentrations of 10-50 nM; inhibition of cytokine secretion and degranulation; Weischel et al., 2008; cited from earlier work
[10] = tested on: M109 lung carcinoma; conditions: dasatinib with CTLA-4 mAb
[11] = tested on: P815 mastocytoma; conditions: SPRYCEL 30 mg/kg P.O., anti-CTLA-4 mAb IP days 10, 14, 18
[12] = tested on: STAT3; conditions: Yu, H. et al., 2007; cited from earlier work
[13] = tested on: SA1N fibrosarcoma; conditions: dasatinib 30 mg/kg daily or 5 days on/2 days off, concurrent CTLA-4 mAb
[14] = tested on: CT26 colon carcinoma; conditions: dasatinib 30 mg/kg, concurrent CTLA-4 mAb
[15] = CT26 colon carcinoma, established tumors

Compound: 4′-Demethylepipodophyllotoxin 9-[4,6-O-(R)-ethylidene-β-D-glucopyranoside], 4′-(dihydrogen phosphate) [Etoposide]
- antitumor activity / combination effect, in words [1, 15]: effective as single agents
- % TGI (Average) [1]: 66%
- CR [1]: 1/8
- PR [1]: 0/8
- T-C (1000 mm^3) [1]: 11
- % TGI (Average D 20-48) [2]: 88%
- CR [2]: 0/8
- PR [2]: 1/8
- T-C (1000 mm^3) [2]: 14
- CTLA-4 blockade activity under concurrent chemotherapy [3]: not abolished
- Median Survival Time [4]: 34 days
- CR [5]: 0
- T-C (1000 mm^3) [5]: 9
- PR [5]: 0
- % TGI (Average) [5]: 59%
- antitumor activity / combination effect, in words ([5]; M109 subcutaneous tumor model): modestly sensitive

Compound: Cl.Nc1ccn([C@@H]2O[C@H](CO)[C@@H](O)C2(F)F)c(=O)n1 (single isomer, unassigned) [Gemcitabine, 2′-deoxy-2′,2′-difluorocytidine monohydrochloride (β-isomer)]
- antitumor activity / combination effect, in words [1, 15]: effective as single agents
- % TGI (Average) [1]: 102%
- CR [1]: 2/8
- PR [1]: 0/8
- T-C (1000 mm^3) [1]: 12
- % TGI (Average D 20-48) [2]: 68%
- CR [2]: 0/8
- PR [2]: 0/8
- T-C (1000 mm^3) [2]: 11
- CTLA-4 blockade activity under concurrent chemotherapy [3]: not abolished
- in vivo cytotoxicity [6]: promote in vivo cytotoxicity
- Median Survival Time [4]: 42 days
- composition of immune cells in tumor-draining lymph nodes [7]: modulates the composition of immune cells
- CR [5]: 0
- T-C (1000 mm^3) [5]: 2.2
- PR [5]: 0
- % TGI (Average) [5]: 32%
- antitumor activity / combination effect, in words ([5]; M109 subcutaneous tumor model): modestly sensitive; also recorded: did not produce significant antitumor activity
- antitumor activity / combination effect, in words ([5]; M109 subcutaneous tumor model, listed as Gem): modestly sensitive; also recorded: did not produce significant M109 antitumor activity

Compound: CC(=O)O[C@H]1C(=O)[C@@]2(C)[C@H]([C@H](OC(=O)c3ccccc3)[C@]3(O)C[C@H](OC(=O)[C@H](O)[C@@H](NC(=O)c4ccccc4)c4ccccc4)C(C)=C1C3(C)C)[C@]1(OC(C)=O)CO[C@@H]1C[C@@H]2O [Paclitaxel, 5beta,20-Epoxy-1,2alpha,4,7beta,10beta,13alpha-hexahydroxytax-11-en-9-one 4,10-diacetate 2-benzoate 13-ester with (2R,3S)-N-benzoyl-3-phenylisoserine]
- % TGI (Average) [1]: 0%
- CR [1]: 0/8
- PR [1]: 0/8
- T-C (1000 mm^3) [1]: 0
- antitumor activity / combination effect, in words ([1]; mouse, in vivo): ineffective
- % TGI (Average D 20-48) [2]: 65%
- CR [2]: 0/8
- PR [2]: 0/8
- T-C (1000 mm^3) [2]: 13
- CTLA-4 blockade activity under concurrent chemotherapy [3]: not abolished
- Median Survival Time [4]: 38 days
- CR [5]: 0
- T-C (1000 mm^3) [5]: 5
- PR [5]: 0
- % TGI (Average) [5]: 45%
- antitumor activity / combination effect, in words ([5]; mouse, in vivo, sc): modestly sensitive

Compound: Cc1nc(Nc2ncc(C(=O)Nc3c(C)cccc3Cl)s2)cc(N2CCN(CCO)CC2)n1 [dasatinib, N-(2-chloro-6-methylphenyl)-2-[[6-[4-(2-hydroxyethyl)-1-piperazinyl]-2-methyl-4-pyrimidinyl]amino]-5-thiazolecarboxamide]
- effect on T-cell activation [8]: blockade of T-cell activation
- effect on T-cell function [9]: inhibits T-cell function
- antitumor activity / combination effect, in words [10]: minimal activity
- antitumor activity / combination effect, in words [11]: modest antitumor activity
- inhibition of STAT3 [12]: potent inhibition of STAT3
- antitumor activity / combination effect, in words [13]: modest antitumor activity
- antitumor activity / combination effect, in words [14]: minimal activity
